Experimental data published in patent US20180057505A1, “BICYCLIC HETEROARYL COMPOUNDS USEFUL AS INHIBITORS OF THE PAR-2 SIGNALING PATHWAY” (VERTEX PHARMACEUTICALS INCORPORATED, priority 2015, published 2018).

Key:
Assay type in all cases: cell-based
PAR2 (HT-29 cells) [1] = target: T1, PAR2 (HT-29 cells) (Homo sapiens, UniProt P55085); experiment: Ca FLIPR TETRA assay, ANTAGONIST mode, activator 8 μM SLIGKV; conditions: HT-29 cells, activator 8 μM SLIGKV
T1 construct: host or cells: HT-29
T1 sequence (P55085 26-397): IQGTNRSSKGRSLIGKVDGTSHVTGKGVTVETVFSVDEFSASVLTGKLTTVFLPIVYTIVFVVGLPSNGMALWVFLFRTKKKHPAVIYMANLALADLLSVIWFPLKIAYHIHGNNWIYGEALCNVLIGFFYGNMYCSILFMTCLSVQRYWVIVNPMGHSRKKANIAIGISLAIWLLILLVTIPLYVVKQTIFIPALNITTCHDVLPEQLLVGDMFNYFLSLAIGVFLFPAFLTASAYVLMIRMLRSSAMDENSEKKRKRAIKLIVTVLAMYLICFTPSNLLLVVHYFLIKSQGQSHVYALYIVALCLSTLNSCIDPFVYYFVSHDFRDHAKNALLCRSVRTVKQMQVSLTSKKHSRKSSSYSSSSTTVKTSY
Procedure, shortened: (§1)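 Fluorescent Ca2+ dye (calcium 5) loading of overnight-plated HT-29 cells preceded compound addition and a 30 min room-temperature incubation. Responses to the specified activator concentration were then read by FLIPR Tetra in the same plate.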

PAR2 (HT-29 cells) [2] = target: T1, PAR2 (HT-29 cells); experiment: Ca FLIPR TETRA assay, ANTAGONIST mode, activator 3.1 U/mL trypsin; conditions: HT-29 cells, activator 3.1 U/mL trypsin
Procedure, shortened: as §1

[3] = test system: Thrombin-stimulated Ca2+ response in HT-29 cells; experiment: Ca FLIPR TETRA assay, ANTAGONIST mode, activator 1 U/mL Thrombin; conditions: HT-29 cells, activator 1 U/mL Thrombin
Procedure, shortened: as §1

[4] = test system: UTP-stimulated Ca2+ response in HT-29 cells; experiment: Ca FLIPR TETRA assay, ANTAGONIST mode, activator 0.6 μM UTP; conditions: for IC50: HT-29 cells, activator 0.6 μM UTP; for inhibition at 50 µM: HT-29
Procedure, shortened: as §1

[5] = Method A: maximal concentration of antagonist 0.1, 1 or 2 μM
[6] = maximal antagonist concentration per Method (A: 0.1, 1 or 2 μM; B: 50 μM)

Row | SMILES | IC50 (PAR2 (HT-29 cells) [1]; [5]) | IC50 (PAR2 (HT-29 cells) [2]; [5]) | IC50 ([3]; Homo sapiens) | IC50 ([4]; Homo sapiens) | IC50 (PAR2 (HT-29 cells) [1]; [6]) | IC50 (PAR2 (HT-29 cells) [2]; [6]) | IC50 [3] | IC50 [4] | inhibition at 50 µM ([4]; Homo sapiens)
1 | CC(C)(C)c1cc(-c2ccc(Cl)c(F)c2)nc2cc(C(=O)N3CCN(c4ccc(C(=O)O)cn4)C(=O)C3(C)C)oc12 [Example I-405] | 1.8 nM | 1.7 nM | 750 nM | 580 nM |  |  |  |  | 
2 | C[C@H]1CN(C(=O)c2cc3nc(-c4ccc(F)cc4)cc(C4(C)CC4)c3o2)CCN1C(=O)C(O)c1ccc(F)cc1 (stereo partly shown) [Example I-114] |  |  | 27000 nM | 30000 nM | 2.2 nM | 2.7 nM |  |  | 
3 | CC(C)(C)c1cc(-c2ccc(Cl)c(F)c2)nc2cc(C(=O)N3CCN(c4ncc(F)cc4C(=O)O)CC3(C)C)oc12 [Example I-518] | 10 nM | 17 nM | > 2000 nM | > 2000 nM |  |  |  |  | 
4 | CC(C)(C)c1cc(-c2ccc(Cl)c(F)c2)nc2cc(C(=O)N3CCN(C(=O)C4CC5(CC(C(=O)O)C5)C4)C(=O)C3(C)C)oc12 (stereo not shown) [Example I-362] | 0.7 nM | 1 nM |  |  |  |  | > 1100 nM | > 1100 nM | 
5 | CC1(C)CCC(c2cc(C(C)(C)C)c3oc(C(=O)N4CCN(C(=O)CCC(C)(C)C(=O)O)CC4(C)C)cc3n2)CC1 [Example I-354] | 0.3 nM | 0.4 nM | > 2000 nM | > 2000 nM |  |  |  |  | 
6 | Cc1nc(C)c(N2CCN(C(=O)c3cc4nc(-c5ccc(Cl)cc5)cc(C(C)(C)C)c4o3)C(C)(C)C2=O)o1 [Example I-386] | 50 nM | 40 nM | > 2000 nM | > 2000 nM |  |  |  |  | 
7 | CC(C)c1cc(-c2ccc(F)cc2)nc2cc(C(=O)N3CCN(S(=O)(=O)c4cn(C)cn4)CC3(C)C)oc12 [Example I-144] |  |  | > 1000 nM | > 1000 nM | 24 nM | 31 nM |  |  | 
8 | CC(C)c1cc(-c2ccc(F)cc2)nc2cc(C(=O)N3CCN(C(=O)C(C)(C)F)CC3(C)C)oc12 [Example I-16] |  |  | 6900 nM |  | 7.2 nM | 6.8 nM |  |  | 61%
9 | [2H]C([2H])([2H])N1CCN(C(=O)c2cc3nc(C4CCC(F)(F)CC4)cc(C(C)(C)C)c3o2)C(C)(C)C1=O [Example I-307] | 124 nM | 210 nM | > 2000 nM | > 2000 nM |  |  |  |  | 
10 | Cc1ccc(C(=O)O)nc1C1CCN(C(=O)c2cc3nc(-c4ccc(Cl)cc4)cc(C(C)(C)C)c3o2)C(C)(C)C1 (stereo not shown) [Example I-397] | 0.6 nM | 0.6 nM |  |  |  |  | > 1010 nM | 760 nM | 
11 | Cc1nc(C(=O)N2CCN(C(=O)c3cc4nc(C5CCC(F)(F)CC5)cc(C(C)(C)C)c4o3)C(C)(C)C2=O)n[nH]1 [Example I-221] |  |  |  |  | 32 nM | 58 nM | > 2000 nM | > 2000 nM | 
12 | CC(C)c1cc(-c2ccc(F)cc2)nc2cc(C(=O)N3CCN(C(=O)[C@H](O)CC(C)(C)C)[C@@H](C)C3)oc12 [Example I-90] |  |  | > 50000 nM | 42000 nM | 2.6 nM | 7.2 nM |  |  | 
13 | CC(C)c1cc(-c2ccc(F)cc2)nc2cc(C(=O)N3CCN(C(=O)[C@H](O)CC(C)(C)C)CC3(C)C)oc12 [Example I-18] |  |  | 7900 nM | 17000 nM | 1.4 nM | 1.1 nM |  |  | 
14 | CC(C)(C)c1cc(-c2ccc(Cl)cc2)nc2cc(C(=O)N3CCN(C(=O)C4CCC(C(=O)O)O4)CC3(C)C)oc12 (stereo not shown) [Example I-256] |  |  | > 2000 nM | > 2000 nM | 22 nM | 31 nM |  |  | 
15 | CC1(C)CCC(c2cc(C(C)(C)C)c3oc(C(=O)N4CCN(c5ncc(-c6nnn[nH]6)cn5)CC4(C)C)cc3n2)CC1 [Example I-346] | 1.6 nM | 4.1 nM | 2100 nM | 1000 nM |  |  |  |  | 
16 | C[C@H]1CN(C(=O)c2cc3nc(-c4ccc(F)cc4)nc(C4(C)CC4)c3o2)CCN1C(=O)[C@H](O)CC(C)(C)C [Example I-128] |  |  | > 50000 nM | 44000 nM | 540 nM | 5300 nM |  |  | 
17 | Cc1ccc(N2CCN(C(=O)c3cc4nc(-c5ccc(Cl)cc5)cc(C(C)(C)C)c4o3)C(C)(C)C2)nc1 [Example I-395] | 56 nM | 40.5 nM | > 2000 nM | > 2000 nM |  |  |  |  | 
18 | C[C@H]1CN(C(=O)c2cc3nc(-c4ccc(F)cc4)cc(C4(C)CC4)c3o2)CCN1C(=O)C1CCC1 [Example I-115] |  |  | > 50000 nM |  | 46 nM | 92 nM |  |  | 66%

Now from value to molecule, other results behind:

Row | IC50 (PAR2 (HT-29 cells) [1]; [5]) | IC50 (PAR2 (HT-29 cells) [2]; [5]) | IC50 ([3]; Homo sapiens) | IC50 ([4]; Homo sapiens) | IC50 (PAR2 (HT-29 cells) [1]; [6]) | IC50 (PAR2 (HT-29 cells) [2]; [6]) | IC50 [3] | IC50 [4] | SMILES | inhibition at 50 µM ([4]; Homo sapiens)
19 | 17 nM | 17 nM | > 2000 nM | > 2000 nM |  |  |  |  | CC(C)(C)c1cc(-c2ccc(Cl)cc2)nc2cc(C(=O)N3CCN(c4ncc(F)cn4)CC3(C)C)oc12 [Example I-370] | 
20 | 0.3 nM | 0.4 nM | 1010 nM | 810 nM |  |  |  |  | Cc1cc(N2CCN(C(=O)c3cc4nc(-c5ccc(Cl)c(F)c5)cc(C(C)(C)C)c4o3)C(C)(C)C2)ncc1C(=O)O [Example I-400] | 
21 | 0.7 nM | 1.2 nM | > 2000 nM | > 2000 nM |  |  |  |  | Cc1cnc(N2CCN(C(=O)c3cc4nc(-c5ccc(Cl)cc5)cc(C(C)(C)C)c4o3)C(C)(C)C2)nc1C(=O)O [Example I-521] | 
22 | 26 nM | 56 nM | > 2000 nM | > 2000 nM |  |  |  |  | CC1(C)CCC(c2cc(C(C)(C)C)c3oc(C(=O)N4CCN(C(=O)c5ccc(C(=O)O)cn5)CC4(C)C)cc3n2)CC1 [Example I-379] | 
23 |  |  | 1800 nM | 1620 nM | 0.3 nM | 0.5 nM |  |  | CC(C)(C)c1cc(-c2ccc(Cl)c(F)c2)nc2cc(C(=O)N3CCN(c4ccc(C(=O)O)cn4)CC3(C)C)oc12 [Example I-287] | 
24 | 3.1 nM | 3.9 nM | > 2000 nM | > 2000 nM |  |  |  |  | CC(C)(C)c1cc(-c2ccc(Cl)c(F)c2)nc2cc(C(=O)N3CCN(c4cc(C(=O)O)ncn4)CC3(C)C)oc12 [Example I-490] | 
25 |  |  | > 50000 nM | > 50000 nM | 30 nM | 250 nM |  |  | CC(Oc1ccccc1)C(=O)N1CCN(C(=O)c2cc3nc(-c4ccc(F)cc4)cc(C(C)C)c3o2)C[C@@H]1C (stereo partly shown) [Example I-85] | 
26 |  |  | 8700 nM | 9900 nM | 48 nM | 44 nM |  |  | CC(=O)N1CCN(C(=O)c2cc3nc(-c4ccc(F)cc4)cc(C(C)C)c3o2)C(C)(C)C1 [Example I-24] | 
27 |  |  | 14000 nM | 14000 nM | 230 nM | 190 nM |  |  | CC(C)c1cc(-c2ccc(F)cc2)nc2cc(C(=O)N3CCN(C(=O)[C@H](C)O)CC3(C)C)oc12 [Example I-15] | 
28 | 0.7 nM | 1.4 nM |  |  |  |  | 1600 nM | 1650 nM | Cc1ncc(N2CCN(C(=O)c3cc4nc(C5CCC(C)(C)CC5)cc(C(C)(C)C)c4o3)C(C)(C)C2)nc1C(=O)O [Example I-525] | 
29 |  |  | > 2000 nM | > 2000 nM | 4 nM | 11 nM |  |  | CCCC(CC)c1cc(-c2ccc(F)cc2)nc2cc(C(=O)N3CCNC(=O)C3(C)C)oc12 (stereo not shown) [Example I-249] | 
30 | 10.6 nM | 14 nM | 1730 nM | 1870 nM |  |  |  |  | CC(C)(C)c1cc(-c2ccc(Cl)cc2)nc2cc(C(=O)N3CCN(c4cccc(C(=O)O)n4)C(=O)C3(C)C)oc12 [Example I-460] | 
31 |  |  | > 2000 nM | > 2000 nM | 61 nM | 34 nM |  |  | CC(C)(C)c1cc(-c2ccc(Cl)cc2)nc2cc(C(=O)N3CCN(c4ccc(C(=O)O)nc4)CC3(C)C)oc12 [Example I-274] | 
